Where two headings read alike, the source gives them in different places.

Data set [1] deals with T1, purified recombinant HIV-1 PR (Human immunodeficiency virus type 1 group M subtype B, UniProt P04585).
T1 construct: This 99 amino acid long homodimeric aspartic PR; made in house; host or cells: Escherichia coli BL21(DE3) RIL
In words: Inhibition of HIV-1 PR, spectrophotometric assay with chromogenic substrate (Morrison equation). Type of data set: biochemical. The procedure:
Ki values were determined by spectrophotometric assay using purified recombinant HIV-1 PR and the chromogenic substrate KARVNleNphEaNle-NH2. Data were analyzed using the Morrison equation[35].

A short description of data set [2]: Solubility in culture conditions. Type of data set: physicochemical. The settings on record: 2 μM in 0.5% DMSO.
Data set [3] has as its target T1, purified recombinant HIV-1 PR. Nature of the data set: Reactivation of inhibited HIV-1 PR by photolysis at 405 nm, cuvette set up. The settings on record: 8 nM PR. Type of data set: biochemical. Here is the method:
(§1) To evaluate the efficacy of photodegradation, we analyzed the restoration of HIV-1 PR activity that had been inhibited by compound 1 (Fig. 3a) on irradiation at 405 nm. For irradiation, two lasers with outputs of 130 mW and 170 mW, respectively, were used in parallel. First, we tested a standard cuvette set up, in which 8 nM purified recombinant HIV-1 PR (final concentration of compound 1: 10 or 100 nM; Fig. 3b) in 1 ml cleavage buffer was irradiated. At the lower concentration, irradiation led to a significant restoration of enzyme activity (65% compared with the uninhibited enzyme reaction). […]
(§2) Figure 3 Kinetic analysis of HIV-1 PR reactivation by inhibitor photodegradation. […] The activity of purified recombinant HIV-1 PR was determined in vitro as described in the experimental section in the presence of the indicated inhibitor concentrations. […] The PR activity was then measured using a chromogenic substrate. […] Relative PR activity was determined as in b after 20-fold dilution into cleavage buffer using the same chromogenic substrate (for details, see Experimental section) and plotted against the flow rate of the sample through the capillary. […]
Cuvette set up. […] The enzyme activity (and thus the efficacy of photodegradation) was followed by the decrease in absorbance at 305 nm.

A short description of data set [4]: Cytotoxicity, XTT, HEK293T cells. The settings on record: human, HEK293T cells. In general terms: Formazan colour is commonly taken as a measure of viable cells.
Procedure: (§3) Cytotoxicity was determined by incubating two-fold serial dilutions of 1 in triplicate in a 96-well plate
(§4) with 30,000 HEK293T cells/well seeded day ago in Dulbecco’s modified Eagle’s medium with L-
(§5) glutamine supplemented with 10% fetal calf serum (FCS, PAA), 100 U of penicillin/mL, 100 µg of
(§6) streptomycin/mL (Sigma-Aldrich) and with 30,000 MT-4 cells (obtained through the NIH AIDS
(§7) medium with 2 mM L-glutamine (PAA) supplemented with 10% FCS, 10 mM HEPES (Sigma-Aldrich),
(§8) 100 U of penicillin/ml, and 100 µg of streptomycin/mL. After 72 h of incubation at 37 °C, 5 % CO2,
(§9) tetrazolium salt XTT (Sigma-Aldrich) was added to the wells for 4 h and formation of colored
(§10) formazan solution was quantified using Victor X3 plate reader (Perkin Elmer). The percentage of
(§11) cytopathic effect (CPE) was plotted against the log10 1 concentrations and the 50 % cytotoxic
(§12) concentrations (CC50) were calculated using nonlinear regression analysis with GraphPad Prism ver. 6
(§13) 1NL4-3hRluc (HIV expressing human Renilla luciferase12) at multiplicity of infection 0.001 IU/ml for 1 h at […]
(§14) dilutions of 1. After 72 h incubation at 37 °C, 5 % CO2 HIV-1 activity was quantified by measuring
(§15) Renilla luciferase luminescence using the Renilla Luciferase Assay System (Promega) in Victor X3
(§16) plate reader. Percentage of inhibition of luminescence activity was plotted against the log10 1 […]
In the next data set the test system is HEK293T cells. In words: Cytotoxicity, XTT, HEK293T cells. The settings on record: 2 μM in 0.5% DMSO; cell line not given.
The subject of data set [5] is HIV-1 PR inside immature HIV-1 particles. Nature of the data set: Photoinduced Gag processing in immature HIV-1 particles produced with inhibitor (capillary irradiation, quantitative immunoblot). Type of data set: cell-based. Here is the method:
Having established conditions for the inhibition of HIV-1 polyprotein processing by compound 1, we proceeded to prepare immature particles for in situ activation of PR. For this, virus particles were produced in transfected HEK293T cells grown in the presence of 2 μM inhibitor. The experimental set up is schematically illustrated in Fig. 5a. Particles collected from inhibitor-treated cells were either subjected to inhibitor wash-out by two subsequent ultracentrifugation steps (Fig. 5b), or only filtered to remove cell debris (Fig. 5c). In both cases, samples were then either irradiated (405 nm) in a glass capillary (Fig. 5b,c, bottom panels) or passed through the capillary in the absence of irradiation (Fig. 5b,c, top panels).
Figure 5 Photoinduced Gag processing in the context of the assembled virion. (a) Schematic illustration of the irradiation experiment to trigger HIV-1 maturation using photoinactivation of compound 1. HEK293T cells were transfected with a proviral HIV-1 plasmid and particles were produced in the presence of 2 μM compound 1. At 44 h post transfection, tissue culture supernatant was harvested and either subjected to ultracentrifugation (b,d) or used directly (c,e). In both cases, samples were then pumped through the capillary set up shown in Supplementary Fig. 4 either with or without ultraviolet irradiation. Subsequently, samples were incubated for various lengths of time. (b,c) Immunoblot analysis of Gag processing products. Samples were separated by SDS–PAGE, and products of Gag processing were detected by quantitative immunoblot (LiCor) using antiserum raised against recombinant HIV-1 CA. The figures show samples incubated for the indicated times without prior irradiation or following irradiation, respectively. Positions of Gag-derived proteins are indicated. (d,e) Quantitative analysis of the experiments shown in b or c, respectively. Anti-CA reactive bands from the immunoblots shown and from corresponding blots from irradiated mature control virus produced in the absence of inhibitor (not shown here) were quantified using Image Studio Light. The graphs show the proportion of mature CA relative to the sum of all anti-CA reactive bands in the respective lane. Filled triangles, irradiated control virus; open circles, inhibitor-treated virus, not irradiated; filled circles, inhibitor-treated virus, irradiated. Curves through data from inhibitor-treated samples represent fits to a single exponential equation. The results are representative of several independent experiments with a slight variation in the half-time of Gag polyprotein processing between 20 and 30 min. CA, capsid; MA, matrix.
HEK293T cells were seeded in six-well plates in high-glucose, phenol red-free DMEM supplemented with penicillin/streptomycin and 10% foetal calf serum. On the following day, cells were transfected with plasmid pCHIV[37] using polyethyleneimine according to standard procedures. A final concentration of 2 μM compound 1 or DMSO (vehicle) was added to the tissue culture medium at the time of transfection. At 44 h post transfection, tissue culture supernatants were harvested, adjusted to pH 6.0 using PR buffer (50 mM MES, pH 6.0, 150 mM NaCl, 2 mM DTT, 1 mM EDTA). Alternatively, supernatants were harvested, filtered, inhibitor was removed by two successive ultracentrifugation steps through a 20% sucrose cushion and the particle pellet was resuspended in PR buffer. […]
(Immunoblotting shows a protein as a band on a membrane.)

Data set [6] relates to HIV-1 replication in MT-4 cells. Nature of the data set: Anti-HIV-1 activity in MT-4 cells (HIV-1 NL4-3 hRluc, Renilla luciferase). The conditions noted are these: Human immunodeficiency virus 1, MT4, 72 h, read-out: EC50, inhibition of HIV-1 replication.
Procedure: as §3, §4, §5, §6, §7, §8, §9, §10, §11, §12, §13, §14, §15, §16
Data set [7] concerns the target T1, purified recombinant HIV-1 PR. In words: Reactivation of inhibited HIV-1 PR by photolysis at 405 nm, capillary set up. Type of data set: biochemical. Here is the method: as §1, with “reaction). At the higher concentration of compound 1, however, PR reactivation was limited even after prolonged irradiation (only 35% activity after 5 min of irradiation).” for “reaction).”
as §2

For data set [8], the system named is HIV-1 Gag polyprotein processing. In words: Inhibition of HIV-1 Gag polyprotein processing in particles from transfected HEK293T cells (immunoblot). Type of data set: cell-based. The settings on record: Human immunodeficiency virus 1, HEK-293T; particles from HEK293T cells transfected with HIV-1 proviral plasmid; read-out: concentration giving ~50% reduction in Gag cleavage. Here is the method: PR-mediated cleavage of the Gag polyprotein yields the mature structural proteins and two small spacer peptides (Fig. 4a), and different rates of cleavage at individual sites result in the generation of characteristic processing intermediates. First, we assessed the inhibitory potency of compound 1 on HIV-1 Gag polyprotein processing in virus producing cells. For this, particles were purified from the supernatant of HEK293T cells transfected with an HIV-1 proviral plasmid and incubated in the presence of various concentrations of compound 1.
Figure 4 Inhibition of HIV-1 Gag processing by compound 1. (a) Schematic representation of the 55 kDa HIV-1 Gag polyprotein and its cleavage products. (b) Inhibition of HIV-1 Gag processing by compound 1. HIV-1 particles were produced in HEK293T cells in the presence of the indicated inhibitor concentrations. […]
Samples were separated by SDS–PAGE (17.5%; acrylamide:bisacrylamide 200:1), and proteins were transferred to a nitrocellulose membrane by semi-dry blotting. HIV-1 Gag-derived proteins were detected using rabbit polyclonal antiserum raised against HIV-1 CA, followed by fluorescently labelled goat-anti rabbit secondary antibody (LiCor). Quantification of anti-CA reactive bands was performed using an infrared imaging system (LiCor Odyssey) and Image Studio Lite software. Data were analyzed with GraphPad prism.

The nature of data set [9]: Cytotoxicity, XTT, MT-4 cells. The conditions noted are these: human.
Procedure: as §3, §4, §5, §6, §7, §8, §9, §10, §11, §12, §13, §14, §15, §16

As usually defined, the Ki is a dissociation constant, usually derived from enzyme kinetics or from competition with a known ligand. Broadly, the CC50 is the concentration at which the toxic effect on the cells reaches its halfway point. High values mean lower toxicity to the cells, low ones greater toxicity to the cells. A word on the EC50: it is the concentration that produces a half-maximal response. For the compound `CCN(CC)c1ccc2c(COC(=O)N[C@H](C(=O)N[C@@H](Cc3ccccc3)C[C@H](O)[C@H](Cc3ccccc3)NC(=O)OCc3cncs3)C(C)C)cc(=O)oc2c1` [compound 1], the Ki in data set [1] turned out to be 0.17 ± 0.02 nM. Besides, in data set [1] (RTV more potent), the “difference in Ki values for RTV and compound 1” value stood at 10 fold. The “loss of potency on irradiation” value in data set [1] (irradiation with a 405 nm laser, inhibitor versus photolysis product) is 4 orders of magnitude. In addition, the solubility entry in [2] is reported as “soluble”. For the same compound, in data set [3] (10 nM compound 1, 405 nm irradiation, read-out: restoration of enzyme activity compared with the uninhibited enzyme reaction), the remaining activity at 0.01 µM worked out at 65%. Also, the “PR activity after irradiation” value in data set [3] (100 nM compound 1, after 5 min of irradiation at 405 nm) was determined as 35%. Further, the CC50 at 72 h was above 50000 nM in data set [4] and 7300 nM in data set [9]. Further, in the data set on HEK293T cells, the “cytotoxicity at working concentration” value is reported as “noncytotoxic”. Also, the “Gag processing after irradiation” value in data set [5] (culture medium without inhibitor removal, irradiated at 405 nm) is “virtually complete Gag processing”. In addition, in data set [5] (culture medium without inhibitor removal, no irradiation, prolonged incubation), the “Gag processing without irradiation” value is given as “no induction of proteolysis”. Moreover, the “mature CA (proportion of all anti-CA reactive bands)” value in data set [5] (inhibitor wash-out by ultracentrifugation, then irradiated at 405 nm, within 15 min, particles produced with 2 μM) is ~ 30%. Besides, the “unprocessed or partially processed Gag products remaining” value in data set [5] (inhibitor wash-out, then irradiated, at 6 h of incubation) was ~ 50%. For the same compound, the “half-time of Gag processing after irradiation” value in data set [5] (particles produced with 2 μM inhibitor, irradiated at 405 nm in capillary) is ~ 20 min. For the same compound, in data set [6], the EC50 is 8.1 nM. Besides, the “compound degraded by irradiation (estimate)” value in data set [7] (estimated from 75% restored PR activity) is “up to 98%”. Further, the “original PR activity recovered” value in data set [7] (flow rate 15 μl min^−1, inhibitor concentration 100 nM, 405 nm) is given as “up to 75%”. Also, the IC50 in data set [8] was around 500 nM.
For `CC(C)[C@H](N)C(=O)N[C@@H](Cc1ccccc1)C[C@H](O)[C@H](Cc1ccccc1)NC(=O)OCc1cncs1` [compound 2], in [1] (purified recombinant HIV-1 PR, chromogenic substrate KARVNleNphEaNle-NH2, read-out: Ki), the inhibition constant (Ki) amounted to 3200 ± 300 nM.

(Values after paper PMC4366505, “Triggering HIV polyprotein processing by light using rapid photodegradation of a tight-binding protease inhibitor” (Nature Communications, 2015).)
